Measured values published in US8546409B2, “Methods of treatment for solid tumors” (priority 2009, dated 2013).

What was measured:
Format in all cases: cell-based
[1] = tested on: NCI panel cancer cell lines; assay: NCI panel of tumor cell assays, summary over cell lines; conditions: all NCI panel cell lines
Excerpt: Compound I has also been tested in a battery of tumor cell assays known as the NCI panel. […] Using this measure, 1.8% of cell lines were particularly sensitive to Compound B at this level, while 39% were particularly sensitive to Compound I at the same concentration. […] Loss of PTEN activity often occurs in cancers, and enhances the sensitivity of a tumor to PI3K inhibitors. […] The following Table summarizes the cell lines found to be sensitive to Compound I and the known mutations in those cell lines.

A549 = assay: NCI panel growth inhibition, A549; conditions: Homo sapiens, Non-Small Cell Lung Cancer
Excerpt: (§1) Compound I has also been tested in a battery of tumor cell assays known as the NCI panel.

EKVX = assay: NCI panel growth inhibition, EKVX; conditions: Homo sapiens, Non-Small Cell Lung Cancer
Excerpt: as §1

HOP-62 = assay: NCI panel growth inhibition, HOP-62; conditions: Homo sapiens, Non-Small Cell Lung Cancer
Excerpt: as §1

HOP-92 = assay: NCI panel growth inhibition, HOP-92; conditions: Homo sapiens, Non-Small Cell Lung Cancer
Excerpt: as §1

NCI-H226 = assay: NCI panel growth inhibition, NCI-H226; conditions: Homo sapiens, Non-Small Cell Lung Cancer
Excerpt: as §1

NCI-H23 = assay: NCI panel growth inhibition, NCI-H23; conditions: Homo sapiens, Non-Small Cell Lung Cancer
Excerpt: as §1

NCI-H322M = assay: NCI panel growth inhibition, NCI-H322M; conditions: Homo sapiens, Non-Small Cell Lung Cancer
Excerpt: as §1

NCI-H460 = assay: NCI panel growth inhibition, NCI-H460; conditions: Homo sapiens, Non-Small Cell Lung Cancer
Excerpt: as §1

NCI-H522 = assay: NCI panel growth inhibition, NCI-H522; conditions: Homo sapiens, Non-Small Cell Lung Cancer
Excerpt: as §1

COLO 205 = assay: NCI panel growth inhibition, COLO 205; conditions: Homo sapiens, Colon Cancer
Excerpt: as §1

HCC-2998 = assay: NCI panel growth inhibition, HCC-2998; conditions: Homo sapiens, Colon Cancer
Excerpt: as §1

HCT-116 = assay: NCI panel growth inhibition, HCT-116; conditions: Homo sapiens, Colon Cancer
Excerpt: as §1

HCT-15 = assay: NCI panel growth inhibition, HCT-15; conditions: Homo sapiens, Colon Cancer
Excerpt: as §1

HT29 = assay: NCI panel growth inhibition, HT29; conditions: Homo sapiens, HT-29, Colon Cancer
Excerpt: as §1

KM12 = assay: NCI panel growth inhibition, KM12; conditions: Homo sapiens, Colon Cancer
Excerpt: as §1

SW-620 = assay: NCI panel growth inhibition, SW-620; conditions: Homo sapiens, Colon Cancer
Excerpt: as §1

SF-268 = assay: NCI panel growth inhibition, SF-268; conditions: Homo sapiens, CNS Cancer
Excerpt: as §1

SF-295 = assay: NCI panel growth inhibition, SF-295; conditions: Homo sapiens, CNS Cancer
Excerpt: as §1

SF-539 = assay: NCI panel growth inhibition, SF-539; conditions: Homo sapiens, CNS Cancer
Excerpt: as §1

SNB-19 = assay: NCI panel growth inhibition, SNB-19; conditions: Homo sapiens, CNS Cancer
Excerpt: as §1

SNB-75 = assay: NCI panel growth inhibition, SNB-75; conditions: Homo sapiens, CNS Cancer
Excerpt: as §1

U251 = assay: NCI panel growth inhibition, U251; conditions: Homo sapiens, U-251, CNS Cancer
Excerpt: as §1

LOX IMVI = assay: NCI panel growth inhibition, LOX IMVI; conditions: Homo sapiens, Melanoma
Excerpt: as §1

MALME-3M = assay: NCI panel growth inhibition, MALME-3M; conditions: Homo sapiens, Melanoma
Excerpt: as §1

M14 = assay: NCI panel growth inhibition, M14; conditions: Homo sapiens, Melanoma
Excerpt: as §1

SK-MEL-2 = assay: NCI panel growth inhibition, SK-MEL-2; conditions: Homo sapiens, Melanoma
Excerpt: as §1

SK-MEL-28 = assay: NCI panel growth inhibition, SK-MEL-28; conditions: Homo sapiens, Melanoma
Excerpt: as §1

SK-MEL-5 = assay: NCI panel growth inhibition, SK-MEL-5; conditions: Homo sapiens, Melanoma
Excerpt: as §1

UACC-257 = assay: NCI panel growth inhibition, UACC-257; conditions: Homo sapiens, Melanoma
Excerpt: as §1

UACC-62 = assay: NCI panel growth inhibition, UACC-62; conditions: Homo sapiens, Melanoma
Excerpt: as §1

IGROV1 = assay: NCI panel growth inhibition, IGROV1; conditions: Homo sapiens, IGROV-1, Ovarian
Excerpt: as §1

OVCAR-3 = assay: NCI panel growth inhibition, OVCAR-3; conditions: Homo sapiens, Ovarian
Excerpt: as §1

OVCAR-4 = assay: NCI panel growth inhibition, OVCAR-4; conditions: Homo sapiens, Ovarian
Excerpt: as §1

OVCAR-5 = assay: NCI panel growth inhibition, OVCAR-5; conditions: Homo sapiens, Ovarian
Excerpt: as §1

OVCAR-8 = assay: NCI panel growth inhibition, OVCAR-8; conditions: Homo sapiens, Ovarian
Excerpt: as §1

SK-OV-3 = assay: NCI panel growth inhibition, SK-OV-3; conditions: Homo sapiens, Ovarian
Excerpt: as §1

786-0 = assay: NCI panel growth inhibition, 786-0; conditions: Homo sapiens, Renal
Excerpt: as §1

A498 = assay: NCI panel growth inhibition, A498; conditions: Homo sapiens, Renal
Excerpt: as §1

ACHN = assay: NCI panel growth inhibition, ACHN; conditions: Homo sapiens, Renal
Excerpt: as §1

CAKI-1 = assay: NCI panel growth inhibition, CAKI-1; conditions: Homo sapiens, Renal
Excerpt: as §1

RXF 393 = assay: NCI panel growth inhibition, RXF 393; conditions: Homo sapiens, Renal
Excerpt: as §1

SN12C = assay: NCI panel growth inhibition, SN12C; conditions: Homo sapiens, Renal
Excerpt: as §1

TK-10 = assay: NCI panel growth inhibition, TK-10; conditions: Homo sapiens, Renal
Excerpt: as §1

UO-31 = assay: NCI panel growth inhibition, UO-31; conditions: Homo sapiens, Renal
Excerpt: as §1

PC-3 = assay: NCI panel growth inhibition, PC-3; conditions: Homo sapiens, Prostate
Excerpt: as §1

DU-145 = assay: NCI panel growth inhibition, DU-145; conditions: Homo sapiens, Prostate
Excerpt: as §1

MCF7 = assay: NCI panel growth inhibition, MCF7; conditions: Homo sapiens, Breast Cancer
Excerpt: as §1

ADR-RES = assay: NCI panel growth inhibition, ADR-RES; conditions: Breast Cancer
Excerpt: as §1

MDA-MB-231 = assay: NCI panel growth inhibition, MDA-MB-231; conditions: Homo sapiens, Breast Cancer
Excerpt: as §1

HS 578T = assay: NCI panel growth inhibition, HS 578T; conditions: Homo sapiens, Breast Cancer
Excerpt: as §1

MDA-MB-435 = assay: NCI panel growth inhibition, MDA-MB-435; conditions: Homo sapiens, Breast Cancer
Excerpt: as §1

BT-549 = assay: NCI panel growth inhibition, BT-549; conditions: Homo sapiens, Breast Cancer
Excerpt: as §1

T-47D = assay: NCI panel growth inhibition, T-47D; conditions: Homo sapiens, T47D, Breast Cancer
Excerpt: as §1

MDA-MB-468 = assay: NCI panel growth inhibition, MDA-MB-468; conditions: Homo sapiens, Breast Cancer
Excerpt: as §1

Compound: CC[C@H](Nc1ncnc2[nH]cnc12)c1nc2cccc(F)c2c(=O)n1-c1ccccc1 [Compound B, reference compound]
- Cell lines particularly sensitive (GI50 of 2 micromolar or less) [1]: 1.8%
- GI50 (A549): 50.4 µM
- GI50 (EKVX): 28.2 µM
- GI50 (HOP-62): 39.7 µM
- GI50 (HOP-92): 34.8 µM
- GI50 (NCI-H226): 100 µM
- GI50 (NCI-H23): 100 µM
- GI50 (NCI-H322M): 32.2 µM
- GI50 (NCI-H460): 34.7 µM
- GI50 (NCI-H522): 52.7 µM
- GI50 (COLO 205): 30.1 µM
- GI50 (HCC-2998): 53.3 µM
- GI50 (HCT-116): 54.3 µM
- GI50 (HCT-15): 48.4 µM
- GI50 (HT29): 39.1 µM
- GI50 (KM12): 54.1 µM
- GI50 (SW-620): 86.4 µM
- GI50 (SF-268): 29.8 µM
- GI50 (SF-295): 8.18 µM
- GI50 (SF-539): 28.6 µM
- GI50 (SNB-19): 54.8 µM
- GI50 (SNB-75): 2.96 µM
- GI50 (U251): 70.4 µM
- GI50 (LOX IMVI): 31.1 µM
- GI50 (MALME-3M): 31.6 µM
- GI50 (M14): 58.4 µM
- GI50 (SK-MEL-2): 100 µM
- GI50 (SK-MEL-28): 38.6 µM
- GI50 (SK-MEL-5): 32.9 µM
- GI50 (UACC-257): 33.5 µM
- GI50 (UACC-62): 4.2 µM
- GI50 (IGROV1): 3.54 µM
- GI50 (OVCAR-3): 15.5 µM
- GI50 (OVCAR-4): 100 µM
- GI50 (OVCAR-5): 40.1 µM
- GI50 (OVCAR-8): 96 µM
- GI50 (SK-OV-3): 13.8 µM
- GI50 (786-0): 5.48 µM
- GI50 (A498): 2.38 µM
- GI50 (ACHN): 24.4 µM
- GI50 (CAKI-1): 13.4 µM
- GI50 (RXF 393): 74.2 µM
- GI50 (SN12C): 11 µM
- GI50 (TK-10): 31.7 µM
- GI50 (UO-31): 5.32 µM
- GI50 (PC-3): 12 µM
- GI50 (DU-145): 43.8 µM
- GI50 (MCF7): 7.08 µM
- GI50 (ADR-RES): 77.9 µM
- GI50 (MDA-MB-231): 100 µM
- GI50 (HS 578T): 6.91 µM
- GI50 (MDA-MB-435): 16.4 µM
- GI50 (BT-549): 14.3 µM
- GI50 (T-47D): 3.18 µM
- GI50 (MDA-MB-468): 13.6 µM
